The text below walks through data of PubChem BioAssay (NCI).

Some test systems named below: A498 renal; BT-549 breast; HCC-2998 colon; HT29 colon; LOX IMVI melanoma; MCF7 breast; NCI-H23 lung; NCI-H522 lung; SF-539 CNS; TK-10 renal.
Common to all, as to assay: DTP human tumour cell line panel, 48 h

“And” between values parts separate entries of the source, which are not always exact repeats. Equal entries are not always repeated.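 These data come from cells grown in 96-well plates and exposed to compound for 48 hours at five concentrations. Here, GI50 denotes the concentration required for 50% inhibition of growth. TGI denotes the concentration required for complete inhibition of growth.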 A value given as a limit tells only on which side of the number the result lay.

In general, TGI refers to the concentration giving total growth inhibition. A higher TGI goes with less potent growth arrest. Consider `COc1ccc2c(=O)c(-c3cc(OC)c(OC)cc3OC)coc2c1`, for which the TGI in the assay on A498 renal was above 100 µM; in the assay on BT-549 breast it was above 100 µM; in the assay with HCC-2998 colon, above 63.9 µM; in the assay with HT29 colon, above 38.3 µM; in the assay with LOX IMVI melanoma, above 100 µM; with MCF7 breast it was above 100 µM. For the same molecule, the TGI with NCI-H23 lung was above 100 µM; in the assay on NCI-H522 lung, 5.44 µM; in the assay with SF-539 CNS, 43.1 µM; in the assay on TK-10 renal it was above 100 µM.

The term GI50 denotes the concentration that inhibits growth by half. As for `COc1ccc(/C=C\c2cc(OC)c(OC)c(OC)c2)cc1NC(=O)/C=C/c1ccc(OC)c(OC)c1`, the GI50 was 184 nM in the assay with A498 renal; 7.7 µM with BT-549 breast; 2720 nM in the assay on HCC-2998 colon; 3.39 µM in the assay on HT29 colon; 7.41 µM in the assay on LOX IMVI melanoma; 3.22 µM in the assay on MCF7 breast. Moreover, the GI50 in the assay with NCI-H23 lung was 16.5 µM; in the assay with NCI-H522 lung, 2610 nM; in the assay on SF-539 CNS, 3.1 µM; in the assay with TK-10 renal, above 100 µM. Further, the TGI in the assay on A498 renal, in the assay with BT-549 breast, in the assay on HCC-2998 colon, in the assay with HT29 colon, in the assay with LOX IMVI melanoma and in the assay on MCF7 breast was above 100 µM in each case. The TGI is above 100 µM in the assay with NCI-H23 lung, above 100 µM in the assay on NCI-H522 lung, 52.6 µM in the assay on SF-539 CNS and above 100 µM in the assay with TK-10 renal.

Consider `O=C(O)c1cccc([As]=[As]c2cccc(C(=O)O)c2)c1` (stereo not drawn), for which the TGI in the assay on A498 renal is 75.7 µM; in the assay on BT-549 breast it was above 100 µM; with HCC-2998 colon it was above 100 µM; in the assay on HT29 colon, above 100 µM; with LOX IMVI melanoma it was 69.6 µM; with MCF7 breast, above 100 µM. Moreover, the TGI in the assay on NCI-H23 lung was above 100 µM; in the assay on NCI-H522 lung it was 35.7 µM; with SF-539 CNS, 39.1 µM; in the assay on TK-10 renal, 57.1 µM.

As for `CCN(Cc1cc(Cl)cc(C)c1O)Cc1c(O)ccc2ccccc12`, the total growth inhibition concentration (TGI) with A498 renal was 33.1 µM; with BT-549 breast, 27.4 µM; in the assay with HCC-2998 colon it was 32.7 µM; in the assay with HT29 colon, 28.1 µM; in the assay with LOX IMVI melanoma it was 38.8 µM; with MCF7 breast it was 39.1 µM. Further, the TGI in the assay on NCI-H23 lung was found to be 32.1 µM; in the assay with NCI-H522 lung, 31.8 µM; in the assay on SF-539 CNS, 30 µM; in the assay on TK-10 renal, 31 µM.

For `O=C(c1ccc(Cl)cc1Cl)N1CCN(C(=O)c2ccc(Cl)cc2Cl)C1=S`, the GI50 in the assay on A498 renal was 16100 nM; with BT-549 breast it was 21.1 µM; in the assay with HCC-2998 colon, 22000 nM; in the assay on HT29 colon, 20.4 µM; in the assay with LOX IMVI melanoma, 17.1 µM; with MCF7 breast, 18.3 µM. For the same molecule, the GI50 is 19.8 µM in the assay on NCI-H23 lung, 18200 nM in the assay on NCI-H522 lung, 27.2 µM with SF-539 CNS and 36.3 µM with TK-10 renal. The TGI in the assay on A498 renal was 36.5 µM; with BT-549 breast, 54.2 µM; in the assay with HCC-2998 colon, 44.4 µM; with HT29 colon it was 48.9 µM; in the assay with LOX IMVI melanoma, 30.8 µM; with MCF7 breast, 36.7 µM. The TGI in the assay with NCI-H23 lung was 43.4 µM; with NCI-H522 lung, 38.1 µM; with SF-539 CNS it was 49.6 µM; in the assay with TK-10 renal, above 100 µM.

For `CC(=O)CC[N+](C)(C)C`, the TGI was found to be 91.9 µM in the assay with A498 renal; 62.6 µM in the assay with BT-549 breast; 68.1 µM in the assay with HCC-2998 colon; 53.5 µM in the assay with HT29 colon; 37.8 µM with LOX IMVI melanoma; 64.8 µM with MCF7 breast. The TGI worked out at 59.6 µM in the assay with NCI-H23 lung, 1.96 µM in the assay on NCI-H522 lung, 82.9 µM in the assay on SF-539 CNS and 38.9 µM in the assay with TK-10 renal.

As for `Nc1c(C(=O)c2cccc(-c3cccnc3)c2)cnn1-c1ccc(F)cc1`, the GI50 was above 25000 nM in the assay with A498 renal; above 13.2 µM with BT-549 breast; above 25000 nM in the assay on HCC-2998 colon; above 25 µM in the assay on HT29 colon; above 25 µM in the assay with LOX IMVI melanoma; above 25 µM with MCF7 breast. Besides, the GI50 in the assay on NCI-H23 lung is above 25 µM; in the assay with NCI-H522 lung it was 6120 nM; in the assay on SF-539 CNS, above 25 µM; with TK-10 renal, above 25 µM. Moreover, the TGI in the assay on A498 renal, in the assay on BT-549 breast, with HCC-2998 colon, with HT29 colon, in the assay on LOX IMVI melanoma and in the assay on MCF7 breast was above 25 µM in each case. Besides, the TGI is above 25 µM in the assay on NCI-H23 lung, 24.7 µM with NCI-H522 lung, above 25 µM in the assay on SF-539 CNS and above 25 µM with TK-10 renal.

Consider `O=[N+]([O-])c1ccccc1/C=N\NC(=S)N/N=C/c1ccccc1[N+](=O)[O-]`, for which the GI50 in the assay on A498 renal is 2490 nM; with BT-549 breast, 39.6 µM; in the assay with HCC-2998 colon it was 20000 nM; in the assay with HT29 colon, 4.04 µM; with LOX IMVI melanoma it was 6.48 µM; in the assay on MCF7 breast, 3.12 µM. Moreover, the GI50 in the assay on NCI-H23 lung was 10.8 µM; with NCI-H522 lung, 2150 nM; in the assay with SF-539 CNS it was 4.17 µM; with TK-10 renal, 13.7 µM. Moreover, the TGI is 28.4 µM in the assay with A498 renal; above 100 µM in the assay on BT-549 breast; above 100 µM in the assay with HCC-2998 colon; above 100 µM in the assay on HT29 colon; above 100 µM with LOX IMVI melanoma; above 100 µM in the assay on MCF7 breast. Also, the TGI was above 100 µM in the assay on NCI-H23 lung, 21.7 µM in the assay with NCI-H522 lung, 58.6 µM with SF-539 CNS and above 100 µM with TK-10 renal.

`CCc1nc(N)nc(N)c1C#CC(C)c1ccc(-c2ccncc2)cc1Cl` (stereo not drawn): the GI50 is 109 nM and 223 nM with A498 renal; 86.9 nM and 134 nM in the assay on HCC-2998 colon; 0.00589 µM and 0.012 µM in the assay with HT29 colon; below 0.005 µM with LOX IMVI melanoma; 0.0144 µM and 0.0328 µM with MCF7 breast; 0.00854 µM and 0.0332 µM in the assay with NCI-H23 lung. The GI50 is 47.7 nM and 34.6 nM with NCI-H522 lung; 0.0159 µM and 0.0423 µM with SF-539 CNS. Moreover, the TGI in the assay on A498 renal was 1.64 µM and 5.81 µM; in the assay with BT-549 breast, 2.8 µM and 12.1 µM; with HCC-2998 colon, 4.07 µM and 13.1 µM; in the assay on HT29 colon, 5.82 µM and 2.45 µM; with LOX IMVI melanoma, 1.37 µM and 11.3 µM; in the assay on MCF7 breast, 4.31 µM and 12.1 µM. Further, the TGI with NCI-H23 lung is 5.01 µM and 5.71 µM; with NCI-H522 lung, 2.97 µM and 4.06 µM; in the assay with SF-539 CNS, 1.56 µM and 10.4 µM; with TK-10 renal, 4.46 µM and 6.39 µM.
